Data taken from patent publication US9676773B2, “Azaindole derivative” (TAIHO PHARMACEUTICAL CO., LTD., priority 2014, dated 2017).
pIC50: −log10 of the molar value.

Key:
[1] = target: T1, purified recombinant human JAK2 protein (Homo sapiens, UniProt O60674); test: Measurement of JAK2 kinase-inhibitory activity; assay type: biochemical; settings: FL-Peptide 22 1 μM, ATP 10 μM, 25° C., 80 minutes
T1 construct: purchased Carna Biosciences, Inc
Experimental: 2) Measurement of JAK2 Kinase-Inhibitory Activity
The activity of the compound of the present invention to inhibit the activity of JAK2 kinase was measured.
Among materials for the measurement of this inhibitory activity, a substrate peptide and a kinase protein were acquired as follows. As such a substrate peptide, FL-Peptide 22 (Perkin Elmer Corp.) was purchased. As such a kinase protein, a purified recombinant human JAK2 protein (Carna Biosciences, Inc.) was purchased.
The method for measuring the inhibitory activity is as follows. First, a serial dilution of the compound of the present invention was prepared by the same method as that described in the above section regarding JAK1. This serial dilution solution (the final concentration of DMSO upon a kinase reaction: 5.0%) or DMSO (final concentration: 5.0%) was mixed with a solution containing the substrate peptide (final concentration: 1 μM), magnesium chloride (final concentration: 10 mM) and ATP (final concentration: 10 μM) in a buffer for kinase reaction (15 mM Tris (pH 7.5), 2 mM dithiothreitol and 0.01% Tween 20). Thereafter, a JAK2 protein was further added to the mixed solution, and the obtained mixture was then incubated at 25° C. for 80 minutes to carry out a kinase reaction. To the reaction solution, EDTA was added to a final concentration of 30 mM, so as to terminate the reaction. After termination of the reaction, the measurement and the data analysis were carried out by the same methods as those described in the above section regarding JAK1.

human PBMC = test: IL-2-dependent growth of human peripheral blood mononuclear cells (PBMC); assay type: cell-based; settings: PHA-M pre-culture 3 days, IL-2 2 ng/mL, 2 days, CellTiter-Glo, read-out: PSMC IC50
Experimental: The activity of the compound of the present invention to inhibit the IL-2-dependent growth reaction of human PBMC, which is caused by JAK3, was measured (Arthritis Rheum. 2010; 62(8): 2283-93).
With a medium containing 10 μg/mL PHA-M (Sigma) (which is RPI-1640 (Sigma) containing 10% human serum type AB (MP Biomedicals)), human PBMC (C.T.L.) (cell density: 1×10^6 cells/mL) was cultured at 37° C. in a culture vessel containing 5% carbon dioxide for 3 days. Thereafter, the culture was washed with RPMI-1640 four times, and a medium (RPMI-1640 containing 10% human serum type AB) was then added to the resultant culture to prepare a cell suspension. The cells (1×10^4 cells per well) and the serially diluted compound of the present invention were added to each well of a 96-well U-bottom microplate, and thus obtained mixture was then cultured at 37° C. in a culture vessel containing 5% carbon dioxide for 30 minutes. After completion of the culture, recombinant human IL-2 (Peprotech) was added to the culture to a final concentration of 2 ng/mL, and the obtained mixture was then stirred at 37° C. in a culture vessel containing 5% carbon dioxide for 2 days (1×10^4 cells/100 μl/each well). After completion of the culture, the resultant was left at a room temperature for 30 minutes, and 100 μl of CellTiter-Glo Luminescent Cell Viability Assay (Promega) was then added to the resultant, followed by stirring it. Thereafter, the reaction mixture was left for 10 minutes, and the amount of a luminescence derived from living cells in each well was then measured with a microplate reader (TECAN). The inhibition rate of the compound to the cell growth caused by IL-2 stimulation was calculated, and the concentration of the compound capable of inhibiting 50% of the cell growth was defined as an […] value (nM).

T1 sequence (O60674 whole entry): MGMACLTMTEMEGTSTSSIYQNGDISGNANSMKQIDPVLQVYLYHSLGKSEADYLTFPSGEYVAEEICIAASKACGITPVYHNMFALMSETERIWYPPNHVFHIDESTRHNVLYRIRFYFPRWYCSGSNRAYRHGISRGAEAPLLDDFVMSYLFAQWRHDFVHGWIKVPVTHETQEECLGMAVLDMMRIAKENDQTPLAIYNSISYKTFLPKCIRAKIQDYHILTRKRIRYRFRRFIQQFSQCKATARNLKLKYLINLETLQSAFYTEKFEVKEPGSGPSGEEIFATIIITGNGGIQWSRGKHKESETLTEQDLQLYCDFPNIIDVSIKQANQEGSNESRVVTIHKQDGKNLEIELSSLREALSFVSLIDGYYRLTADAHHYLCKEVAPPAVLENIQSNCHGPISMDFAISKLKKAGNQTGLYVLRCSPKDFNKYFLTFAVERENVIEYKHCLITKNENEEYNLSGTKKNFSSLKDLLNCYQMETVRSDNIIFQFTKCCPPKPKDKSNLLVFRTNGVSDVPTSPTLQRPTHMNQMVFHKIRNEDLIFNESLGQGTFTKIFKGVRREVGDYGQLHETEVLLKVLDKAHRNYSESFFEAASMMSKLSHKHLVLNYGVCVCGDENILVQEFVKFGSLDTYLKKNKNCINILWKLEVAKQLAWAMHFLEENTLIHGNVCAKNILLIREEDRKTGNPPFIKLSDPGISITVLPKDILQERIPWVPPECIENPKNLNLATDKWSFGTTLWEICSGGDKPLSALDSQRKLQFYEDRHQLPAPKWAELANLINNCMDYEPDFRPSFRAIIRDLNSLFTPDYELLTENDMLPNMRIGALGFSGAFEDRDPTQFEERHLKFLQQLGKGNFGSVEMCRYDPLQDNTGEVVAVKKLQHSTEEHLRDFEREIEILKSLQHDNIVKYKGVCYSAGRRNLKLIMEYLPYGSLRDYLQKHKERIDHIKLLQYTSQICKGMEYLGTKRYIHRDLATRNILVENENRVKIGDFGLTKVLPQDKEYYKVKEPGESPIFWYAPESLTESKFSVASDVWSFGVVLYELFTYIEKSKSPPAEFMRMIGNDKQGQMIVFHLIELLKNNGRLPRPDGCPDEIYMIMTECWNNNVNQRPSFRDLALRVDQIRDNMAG

| pIC50 [1] | SMILES | pIC50 (human PBMC) |
| --- | --- | --- |
| 6.06 | C=CC(=O)NC1CC=C(c2ccnc3[nH]cc(-c4nnco4)c23)C1 (stereo not drawn) [Compound 57, N-(3-(3-(1,3,4-Oxadiazol-2-yl)-1H-pyrrolo[2,3-b]pyridin-4-yl)cyclopent-3-en-1-yl)acrylamide] | 6.52 |
| 6.59 | C=CC(=O)N[C@H]1CCC=C(c2ccnc3[nH]cc(-c4nnco4)c23)C1 [Compound 55, (S)—N-(3-(3-(1,3,4-Oxadiazol-2-yl)-1H-pyrrolo[2,3-b]pyridin-4-yl)cyclohex-3-en-1-yl)acrylamide] | 7.47 |
| 6.37 | C=CC(=O)N[C@H]1CCC=C(c2ccnc3[nH]cc(-c4ccno4)c23)C1 [Compound 59] | 7.26 |
| 6.15 | C=CC(=O)NC1CCC=C(c2ccnc3[nH]cc(-c4cnco4)c23)C1 (stereo not drawn) [Compound 48, N-(3-(3-(Oxazol-5-yl)-1H-pyrrolo[2,3-b]pyridin-4-yl)cyclohex-3-en-1-yl)acrylamide] | 6.94 |
| 5.80 | Cc1nc(-c2c[nH]c3ncc(-c4ccccc4)cc23)cs1 [Comparative Example 3, 2-Methyl-4-(5-phenyl-1H-pyrrolo[2,3-b]pyridin-3-yl)thiazole, reference compound] | < 5.52 |
| 6.60 | C=CC(=O)NC1CCC=C(c2ccnc3[nH]cc(-c4ccc(CO)o4)c23)C1 (stereo not drawn) [Compound 10, N-(3-(3-(5-(Hydroxymethyl)furan-2-yl)-1H-pyrrolo[2,3-b]pyridin-4-yl)cyclohex-3-en-1-yl)acrylamide] | 6.87 |
| 6.22 | C=CC(=O)NC1CCC=C(c2ccnc3[nH]cc(-c4cccnc4OC)c23)C1 (stereo not drawn) [Compound 6, N-(3-(3-(2-Methoxypyridin-3-yl)-1H-pyrrolo[2,3-b]pyridin-4-yl)cyclohex-3-en-1-yl)acrylamide] | 6.74 |
| 6.24 | C=CC(=O)NC1CCC=C(c2ccnc3[nH]cc(-c4cn[nH]c4)c23)C1 (stereo not drawn) [Compound 3, N-(3-(3-(1H-Pyrazol-4-yl)-1H-pyrrolo[2,3-b]pyridin-4-yl)cyclohex-3-en-1-yl)acrylamide] | 6.74 |
| 6.01 | C=CC(=O)NC1CCC=C(c2ccnc3[nH]cc(-c4nnco4)c23)C1 (stereo not drawn) [Compound 49, N-(3-(3-(1,3,4-Oxadiazol-2-yl)-1H-pyrrolo[2,3-b]pyridin-4-yl)cyclohex-3-en-1-yl)acrylamide] | 6.91 |
| 6.27 | C1=C(c2ccnc3[nH]ccc23)CCC1 [Comparative Example 2, 4-(Cyclopent-1-en-1-yl)-1H-pyrrolo[2,3-b]pyridine, reference compound] | < 5.52 |
| 5.68 | C=CC(=O)NC1CCC=C(c2ccnc3[nH]cc(-c4nncs4)c23)C1 (stereo not drawn) [Compound 54] | 6.77 |
| 6.23 | C=CC(=O)NC1CCC=C(c2ccnc3[nH]cc(-c4cc(CO)co4)c23)C1 (stereo not drawn) [Compound 14, N-(3-(3-(4-(Hydroxymethyl)furan-2-yl)-1H-pyrrolo[2,3-b]pyridin-4-yl)cyclohex-3-en-1-yl)acrylamide] | 6.94 |
| 6.01 | C=CC(=O)NC1CCC=C(c2ccnc3[nH]cc(C4=CCOC4)c23)C1 (stereo not drawn) [Compound 34, N-(3-(3-(2,5-Dihydrofuran-3-yl)-1H-pyrrolo[2,3-b]pyridin-4-yl)cyclohex-3-en-1-yl)acrylamide] | 7.09 |
| 6.00 | C=CC(=O)NC1CCC=C(c2ccnc3[nH]cc(-c4nn(C)c(=O)o4)c23)C1 (stereo not drawn) [Compound 53, N-(3-(3-(4-Methyl-5-oxo-4,5-dihydro-1,3,4-oxadiazol-2-yl)-1H-pyrrolo[2,3-b]pyridin-4-yl)cyclohex-3-en-1-yl)acrylamide] | 6.79 |
| 6.30 | C=CC(=O)NC1CCC=C(c2ccnc3[nH]cc(-c4ccco4)c23)C1 (stereo not drawn) [Compound 12, N-(3-(3-(Furan-2-yl)-1H-pyrrolo[2,3-b]pyridin-4-yl)cyclohex-3-en-1-yl)acrylamide] | 6.91 |
| 5.62 | C=CC(=O)NC1CCC=C(c2ccnc3[nH]cc(-c4ccc(F)nc4)c23)C1 (stereo not drawn) [Compound 37, N-(3-(3-(6-Fluoropyridin-3-yl)-1H-pyrrolo[2,3-b]pyridin-4-yl)cyclohex-3-en-1-yl)acrylamide] | 6.80 |
| 6.35 | C1=C(c2ccnc3[nH]ccc23)CCCC1 [Comparative Example 1, reference compound] | < 5.52 |
| 6.35 | C=CC(=O)NC1CCC=C(c2ccnc3[nH]cc(-c4ccccc4)c23)C1 (stereo not drawn) [Compound 1, N-(3-(3-Phenyl-1H-pyrrolo[2,3-b]pyridin-4-yl)cyclohex-3-en-1-yl)acrylamide] | 6.67 |
